In PubChem BioAssay (NCI):
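Cultured in 96-well plates, cells were exposed to test compound for 48 hours across five concentrations. Abbreviation: GI50, concentration required for 50% inhibition of growth. Definition used: TGI = concentration required for complete inhibition of growth.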

How the values were obtained:
Test in all cases: NCI anticancer screen, dose series, 48 h
[1] = system: U251 CNS
[2] = system: KM12 colon
[3] = system: MCF7 breast
[4] = system: MDA-MB-231 breast
[5] = system: NCI-H522 lung
[6] = system: SW-620 colon
[7] = system: RXF 393 renal
[8] = system: HL-60(TB) leukemia
[9] = system: BT-549 breast
[10] = system: A498 renal

| Structure (SMILES) | GI50 [1] [µM] | TGI [1] [µM] | GI50 [2] [µM] | TGI [2] [µM] | GI50 [3] [µM] | TGI [3] [µM] | GI50 [4] [µM] | TGI [4] [µM] | GI50 [5] [µM] | TGI [5] [µM] | GI50 [6] [µM] | TGI [6] [µM] | TGI [7] [µM] | TGI [8] [µM] | GI50 [9] [nM] | TGI [9] [µM] | GI50 [10] [µM] | TGI [10] [µM] | GI50 [8] [µM] | GI50 [7] [µM] |
| --- | --- | --- | --- | --- | --- | --- | --- | --- | --- | --- | --- | --- | --- | --- | --- | --- | --- | --- | --- | --- |
| O=C1c2ccccc2-c2c1c1ccc([N+](=O)[O-])cc1c(=O)n2CCN1CCOCC1 | 49.6 | > 100 | > 100 | > 100 | 43 | > 100 | > 100 | > 100 | > 100 | > 100 | 40.5 | > 100 | – | – | – | – | – | – | – | – |
| Nc1ncnc2c1N=CN(Oc1ccccc1)N2 | – | > 100 | – | > 100 | – | – | – | – | – | – | – | > 100 | > 100 | – | – | – | – | – | – | – |
| CC(C)(C)[Si](C)(C)O/N=C\c1cccc(O[Si](C)(C)C(C)(C)C)c1 | – | 31.4 | – | 32.2 | – | – | – | – | – | – | – | 34.7 | 37.4 | 36.8 | – | – | – | – | – | – |
| O=C1Nc2cc(-c3ccc(O)cc3)ccc2/C1=C/c1ccc[nH]1 | 0.526 | > 100 | 0.247 | > 100 | – | – | 0.154 | 6.66 | 0.258 | > 20.1 | 0.0746 | > 100 | 2.45 | – | 396 | 13.3 | 1.53 | 5.05 | 0.228 | 0.826 |
| CCOc1cc(CCNC)c2c(ccc3ccc(OC)c(O)c32)c1OC | – | 32.2 | – | 26.4 | – | 22.4 | – | 28.5 | – | 21.7 | – | – | 31.5 | > 100 | – | 30.1 | – | – | – | – |
| O=C(CC(=O)c1cccc2ccccc12)C(=O)Nc1nccs1 | – | > 100 | – | > 100 | – | – | – | – | – | > 100 | – | > 100 | > 100 | > 100 | – | – | – | > 100 | – | – |
| CC/C(=N/O)C(C)C(=O)CCC(=O)Nc1ccc(Cl)cc1 (centres undefined) | – | > 100 | – | > 100 | – | – | – | – | – | – | – | > 100 | > 100 | > 100 | – | – | – | > 100 | – | – |
| CCN(CC)CCOc1ccccc1-n1c(C)ccc1-c1ccccc1 | 13.4 | 27.4 | 17.2 | 32.5 | 13 | 26.7 | 6.54 | 20.7 | 11.6 | 28.3 | 15.2 | 31.8 | 20.1 | 40.6 | – | – | 14.5 | 32 | 20.5 | 5.31 |
| COc1ccc(/C=C\c2cc(OC)c(OC)c(OC)c2)cc1N/C=C\C(=O)c1c[nH]c2ccccc12 | < 0.01 | 47.8 | < 0.01 | 0.0254 | < 0.01 | > 100 | < 0.01 | 94.4 | – | – | < 0.01 | > 100 | – | – | – | – | < 0.01 | 0.0153 | – | – |
| COc1ccccc1NC(=O)C1=C(C)NC(C)=C(C(=O)Nc2ccccc2OC)C1c1ccc(C2C(C(=O)Nc3ccccc3OC)=C(C)NC(C)=C2C(=O)Nc2ccccc2OC)cc1 | – | 7.01 | – | 3.38 | – | – | – | – | – | 3.52 | – | 4.06 | 5.06 | 5.96 | – | – | – | 15.5 | – | – |
| NC(=S)N/N=C1/C(=O)N(c2ccccc2)C(=O)C1C(=O)Nc1ccccc1 (centres undefined) | – | > 100 | – | > 100 | – | – | – | – | – | > 100 | – | > 100 | > 100 | > 100 | – | – | – | > 100 | – | – |
| Clc1ccc2c(NCCNc3nc(N4CCCCC4)nc4ccccc34)ccnc2c1 | 2.08 | 5.15 | 3.39 | 12.7 | 0.748 | 12.6 | – | – | 1.75 | 3.85 | 1.34 | 3.33 | 3.72 | – | 2010 | 4.68 | 10.2 | 22.1 | – | 1.81 |
| O=C1c2ccccc2-c2c1c1ccc3ccccc3c1n2-c1ccccc1 | 18.9 | 35.7 | 21.3 | > 100 | 15.6 | > 100 | 22.3 | 47.3 | 53.1 | > 100 | 59.5 | > 100 | 52.1 | – | 44700 | > 100 | – | – | – | 18.9 |
| Cc1cccc(/C=N/N=C(\N)NO)n1 | – | > 100 | – | > 100 | – | – | – | – | – | > 100 | – | > 100 | > 100 | > 100 | – | – | – | > 100 | – | – |
| CCCCCCCCCCCc1cc(=O)c2c(O)cccc2o1 | – | > 100 | – | > 100 | – | – | – | – | – | > 100 | – | > 100 | > 100 | > 100 | – | – | – | – | – | – |
| COC(=O)CCC(=O)Nc1cc(C)ccc1C | – | > 100 | – | > 100 | – | – | – | – | – | > 100 | – | > 100 | > 100 | > 100 | – | – | – | > 100 | – | – |
| CC1=CC[C@@H]2C(=O)C=CC=C[C@H]12.[C-]#[O+].[C-]#[O+].[C-]#[O+].[Fe] | > 100 | > 100 | > 100 | > 100 | – | – | – | – | 9.81 | > 100 | – | – | > 100 | > 100 | – | – | > 100 | > 100 | > 100 | > 100 |
| COc1ccccc1N1CCN(CC(O)Cn2c(=O)c3c(OC)nc(C)cc3c(=O)n2-c2ccccc2)CC1 (centres undefined) | 31.6 | > 100 | > 100 | > 100 | > 100 | > 100 | 24.3 | > 100 | > 100 | > 100 | > 100 | > 100 | – | > 100 | – | – | 23.8 | 98.2 | > 100 | – |
| CC(NNC(=S)N1CCN(c2ccccn2)CC1)c1cccc[n+]1[O-] (centres undefined) | – | > 100 | – | > 100 | – | > 100 | – | > 100 | – | 15.3 | – | > 100 | > 100 | 16.7 | – | > 100 | – | – | – | – |
| CC(C)(C)c1cc(C#N)c2c(c1)C(=O)OC2(c1ccccc1)c1ccccc1C#N (centres undefined) | – | > 100 | – | > 100 | – | – | – | – | – | > 100 | – | > 100 | > 100 | > 100 | – | – | – | > 100 | – | – |
